Test results from ChEMBL document CHEMBL1201862, “PubChem BioAssay data set” (2004).
One block for each compound: values may come before it. Calls of active or inactive are those of the source.

Assays:
SUMO-activating enzyme = SUMO-activating enzyme (Homo sapiens, UniProt Q9UBT2); assay: blockers of UBC9-mediated SUMO conjugation – biochemical, AlphaScreen, SUMOylation inhibitor project, confirmation (AID 2018); type: functional
BJ = assay: BJ-TERT fibroblast viability loss – cell-based, RAS-independent, luminescence, dose response (AID 1933); type: functional; details: Homo sapiens
Vero = assay: viability of Vero cells under compound – cytotoxicity control for flavivirus capping enzyme inhibitors (AID 588742); type: functional; details: Chlorocebus sabaeus
Caspase-9 = Caspase-9 (Homo sapiens, UniProt P55211); assay: inhibitors of purified CASP9 protease – biochemical, fluorescence, plate reader, cherry-picked samples, selectivity assay for caspase-6 inhibitor project, dose response (AID 743293)
[1] = biological target: T1, Ubiquitin-conjugating enzyme E2 N (Homo sapiens, UniProt P61088); type: functional;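 note: Dose-response confirmation in a TR-FRET assay detecting UBC13-driven polyubiquitin chain formation, inhibition measured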
T1 sequence (P61088 whole entry): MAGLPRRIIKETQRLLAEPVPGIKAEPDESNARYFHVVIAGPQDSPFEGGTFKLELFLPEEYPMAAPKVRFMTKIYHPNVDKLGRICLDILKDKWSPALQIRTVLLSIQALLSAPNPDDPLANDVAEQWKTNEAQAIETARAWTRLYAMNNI

Insulin-degrading enzyme = biological target: T2, Insulin-degrading enzyme (Homo sapiens, UniProt P14735); assay: cellular IDE activation of Abeta substrate cleavage – fluorescence polarization, HEK cells, dose response (AID 588439); type: functional, cell-based
T2 sequence (P14735 whole entry): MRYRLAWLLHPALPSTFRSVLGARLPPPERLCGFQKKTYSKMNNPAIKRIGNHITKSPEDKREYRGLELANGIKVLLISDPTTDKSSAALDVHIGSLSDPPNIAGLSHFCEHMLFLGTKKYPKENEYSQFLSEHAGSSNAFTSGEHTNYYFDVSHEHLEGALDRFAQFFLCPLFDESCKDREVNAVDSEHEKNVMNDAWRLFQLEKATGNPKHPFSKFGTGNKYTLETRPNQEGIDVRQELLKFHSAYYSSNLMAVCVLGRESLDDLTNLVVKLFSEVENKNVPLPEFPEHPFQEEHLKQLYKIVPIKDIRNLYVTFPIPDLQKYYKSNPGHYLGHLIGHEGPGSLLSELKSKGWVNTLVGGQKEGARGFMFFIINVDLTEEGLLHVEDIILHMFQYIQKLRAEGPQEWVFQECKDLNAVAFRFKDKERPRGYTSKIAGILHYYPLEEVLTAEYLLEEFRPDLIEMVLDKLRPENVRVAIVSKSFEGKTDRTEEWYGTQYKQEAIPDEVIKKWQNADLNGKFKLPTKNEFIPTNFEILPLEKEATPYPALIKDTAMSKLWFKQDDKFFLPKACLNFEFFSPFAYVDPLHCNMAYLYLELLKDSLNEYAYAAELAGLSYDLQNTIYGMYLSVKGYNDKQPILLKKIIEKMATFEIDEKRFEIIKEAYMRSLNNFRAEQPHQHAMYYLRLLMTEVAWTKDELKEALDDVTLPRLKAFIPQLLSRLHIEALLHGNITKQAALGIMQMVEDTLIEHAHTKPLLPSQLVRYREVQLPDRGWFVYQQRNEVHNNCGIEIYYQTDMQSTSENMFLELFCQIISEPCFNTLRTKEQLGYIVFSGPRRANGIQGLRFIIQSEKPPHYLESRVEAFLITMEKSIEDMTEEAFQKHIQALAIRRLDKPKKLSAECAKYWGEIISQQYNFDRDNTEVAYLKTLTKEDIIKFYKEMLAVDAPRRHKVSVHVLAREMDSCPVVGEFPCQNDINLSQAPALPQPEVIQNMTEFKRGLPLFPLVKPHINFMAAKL

[2] = biological target: Serine/threonine-protein kinase PAK 4 (Homo sapiens, UniProt O96013); type: functional;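 note: value obtained within a kinome profiling panel in which PAK4 was one of the panel members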
[3] = biological target: Serine/threonine-protein kinase MRCK alpha (Homo sapiens, UniProt Q5VT25); type: functional
LIM domain kinase 1 = LIM domain kinase 1 (Homo sapiens, UniProt P53667); assay: Navigating the Kinome. Panel member name: LIMK1; type: functional
[4] = biological target: Mast/stem cell growth factor receptor Kit (Homo sapiens, UniProt P10721); type: functional;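 note: KIT entry within a kinase panel assay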
[5] = biological target: Rho-associated protein kinase 1 (Homo sapiens, UniProt Q13464); type: functional;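 note: measured within a broad kinome-wide panel profiling many kinases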
[6] = biological target: cGMP-dependent protein kinase 1 (Homo sapiens, UniProt Q13976); type: functional;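 note: value from a kinome panel screen with PRKG1 as the panel member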
[7] = biological target: Dual specificity protein kinase CLK2 (Homo sapiens, UniProt P49760); type: functional
[8] = biological target: Serine/threonine-protein kinase N2 (Homo sapiens, UniProt Q16513); type: functional
[9] = biological target: Casein kinase I isoform alpha (Homo sapiens, UniProt P48729); type: functional
[10] = biological target: Mitogen-activated protein kinase kinase kinase 20 (Homo sapiens, UniProt Q9NYL2); type: functional
[11] = biological target: Dual specificity tyrosine-phosphorylation-regulated kinase 3 (Homo sapiens, UniProt O43781); type: functional;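 note: measured as one member of a broad kinase panel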
Misshapen-like kinase 1 = Misshapen-like kinase 1 (Homo sapiens, UniProt Q8N4C8); type: functional;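 note: kinome panel screen with MINK as the panel member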
[12] = biological target: Non-receptor tyrosine-protein kinase TYK2 (Homo sapiens, UniProt P29597); type: functional
[13] = biological target: Mitogen-activated protein kinase kinase kinase kinase 2 (Homo sapiens, UniProt Q12851); type: functional;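 note: measured as one member of a kinome-wide kinase panel, with MAP4K2 as the panel entry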
[14] = biological target: Ribosomal protein S6 kinase alpha-5 (Homo sapiens, UniProt O75582); type: functional
[15] = biological target: cAMP-dependent protein kinase catalytic subunit PRKX (Homo sapiens, UniProt P51817); type: functional
[16] = biological target: Serine/threonine-protein kinase PLK3 (Homo sapiens, UniProt Q9H4B4); type: functional
Chain of Serine/threonine-protein kinase PLK3 (Q9H4B4 whole entry): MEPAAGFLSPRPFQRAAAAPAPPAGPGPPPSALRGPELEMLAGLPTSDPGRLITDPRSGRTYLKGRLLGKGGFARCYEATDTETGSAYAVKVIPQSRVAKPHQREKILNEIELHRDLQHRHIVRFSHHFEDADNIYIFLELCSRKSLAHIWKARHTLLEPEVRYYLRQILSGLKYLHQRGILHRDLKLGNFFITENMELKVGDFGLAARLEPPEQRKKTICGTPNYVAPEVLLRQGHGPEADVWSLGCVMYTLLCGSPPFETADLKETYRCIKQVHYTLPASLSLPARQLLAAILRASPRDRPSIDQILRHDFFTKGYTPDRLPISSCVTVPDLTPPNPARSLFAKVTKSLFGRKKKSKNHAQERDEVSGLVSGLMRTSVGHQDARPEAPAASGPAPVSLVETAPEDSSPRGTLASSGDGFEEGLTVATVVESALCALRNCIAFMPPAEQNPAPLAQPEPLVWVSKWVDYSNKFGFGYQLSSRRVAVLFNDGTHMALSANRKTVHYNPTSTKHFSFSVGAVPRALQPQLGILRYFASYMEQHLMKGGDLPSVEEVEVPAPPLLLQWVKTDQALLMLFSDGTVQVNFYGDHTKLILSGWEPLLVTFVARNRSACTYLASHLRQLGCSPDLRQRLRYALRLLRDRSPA

Chain of Non-receptor tyrosine-protein kinase TYK2 (P29597 whole entry): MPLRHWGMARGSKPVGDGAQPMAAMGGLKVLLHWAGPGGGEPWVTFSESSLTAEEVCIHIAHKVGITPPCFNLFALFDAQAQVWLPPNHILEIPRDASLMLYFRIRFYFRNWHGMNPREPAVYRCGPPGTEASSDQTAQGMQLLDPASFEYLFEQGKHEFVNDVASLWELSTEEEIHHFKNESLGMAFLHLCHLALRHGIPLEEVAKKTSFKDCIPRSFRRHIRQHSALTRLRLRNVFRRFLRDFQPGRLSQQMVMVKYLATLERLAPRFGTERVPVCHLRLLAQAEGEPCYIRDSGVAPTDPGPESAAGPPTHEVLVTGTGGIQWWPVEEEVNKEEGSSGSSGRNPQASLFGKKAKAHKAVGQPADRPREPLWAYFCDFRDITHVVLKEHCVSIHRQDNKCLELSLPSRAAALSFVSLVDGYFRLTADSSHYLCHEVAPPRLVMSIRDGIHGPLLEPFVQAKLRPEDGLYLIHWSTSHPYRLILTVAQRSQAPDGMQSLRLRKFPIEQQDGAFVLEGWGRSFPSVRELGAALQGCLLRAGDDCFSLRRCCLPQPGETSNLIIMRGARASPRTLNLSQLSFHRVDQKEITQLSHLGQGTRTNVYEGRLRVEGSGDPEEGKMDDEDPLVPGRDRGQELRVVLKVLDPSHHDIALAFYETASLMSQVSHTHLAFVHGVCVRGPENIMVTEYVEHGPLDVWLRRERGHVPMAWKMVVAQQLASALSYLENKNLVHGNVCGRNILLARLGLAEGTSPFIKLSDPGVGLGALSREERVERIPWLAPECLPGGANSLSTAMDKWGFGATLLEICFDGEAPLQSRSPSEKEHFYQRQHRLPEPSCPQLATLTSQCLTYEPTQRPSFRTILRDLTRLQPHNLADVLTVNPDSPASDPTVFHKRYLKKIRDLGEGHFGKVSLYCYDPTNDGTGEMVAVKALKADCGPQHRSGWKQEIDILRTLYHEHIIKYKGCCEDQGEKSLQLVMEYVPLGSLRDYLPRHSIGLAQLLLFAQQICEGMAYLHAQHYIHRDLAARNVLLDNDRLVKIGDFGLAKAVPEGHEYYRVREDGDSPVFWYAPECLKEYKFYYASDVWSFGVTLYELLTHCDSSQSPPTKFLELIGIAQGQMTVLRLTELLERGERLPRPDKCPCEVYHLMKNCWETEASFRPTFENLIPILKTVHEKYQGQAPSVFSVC
Chain of Misshapen-like kinase 1 (Q8N4C8 whole entry): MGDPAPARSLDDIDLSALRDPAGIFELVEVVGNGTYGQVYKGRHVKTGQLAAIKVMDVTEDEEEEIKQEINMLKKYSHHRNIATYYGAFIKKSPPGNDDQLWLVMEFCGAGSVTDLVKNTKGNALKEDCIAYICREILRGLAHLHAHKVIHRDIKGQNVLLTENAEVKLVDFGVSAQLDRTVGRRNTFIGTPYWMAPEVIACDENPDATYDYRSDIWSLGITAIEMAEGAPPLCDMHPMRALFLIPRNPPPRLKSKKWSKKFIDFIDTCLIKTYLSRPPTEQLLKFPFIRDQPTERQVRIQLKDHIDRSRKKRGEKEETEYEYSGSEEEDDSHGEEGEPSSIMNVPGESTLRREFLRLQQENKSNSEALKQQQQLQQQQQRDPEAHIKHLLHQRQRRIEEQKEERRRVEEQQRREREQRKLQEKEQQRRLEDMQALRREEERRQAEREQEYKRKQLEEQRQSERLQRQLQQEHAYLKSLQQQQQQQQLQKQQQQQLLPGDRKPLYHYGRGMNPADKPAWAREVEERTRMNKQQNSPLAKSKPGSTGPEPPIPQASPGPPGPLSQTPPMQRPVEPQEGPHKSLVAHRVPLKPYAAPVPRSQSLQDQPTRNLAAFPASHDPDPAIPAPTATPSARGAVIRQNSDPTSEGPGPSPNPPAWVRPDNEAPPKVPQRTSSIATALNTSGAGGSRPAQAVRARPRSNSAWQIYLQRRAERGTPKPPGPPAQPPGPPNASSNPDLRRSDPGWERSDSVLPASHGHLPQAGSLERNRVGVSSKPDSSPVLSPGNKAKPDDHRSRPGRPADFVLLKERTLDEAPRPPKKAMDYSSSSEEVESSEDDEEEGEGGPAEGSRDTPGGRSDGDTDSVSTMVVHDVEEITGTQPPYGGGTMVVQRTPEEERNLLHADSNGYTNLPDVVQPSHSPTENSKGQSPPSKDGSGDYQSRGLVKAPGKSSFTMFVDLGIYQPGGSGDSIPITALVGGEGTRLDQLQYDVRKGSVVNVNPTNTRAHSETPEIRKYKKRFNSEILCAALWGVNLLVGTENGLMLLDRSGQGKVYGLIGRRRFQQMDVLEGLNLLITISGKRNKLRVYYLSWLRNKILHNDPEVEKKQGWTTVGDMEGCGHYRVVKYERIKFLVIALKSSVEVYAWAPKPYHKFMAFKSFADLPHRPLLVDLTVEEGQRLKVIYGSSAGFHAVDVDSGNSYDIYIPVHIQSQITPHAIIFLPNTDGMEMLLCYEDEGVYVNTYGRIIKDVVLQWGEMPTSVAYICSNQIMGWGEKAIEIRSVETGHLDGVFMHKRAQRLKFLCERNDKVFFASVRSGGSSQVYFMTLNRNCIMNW
Chain of Rho-associated protein kinase 1 (Q13464 whole entry): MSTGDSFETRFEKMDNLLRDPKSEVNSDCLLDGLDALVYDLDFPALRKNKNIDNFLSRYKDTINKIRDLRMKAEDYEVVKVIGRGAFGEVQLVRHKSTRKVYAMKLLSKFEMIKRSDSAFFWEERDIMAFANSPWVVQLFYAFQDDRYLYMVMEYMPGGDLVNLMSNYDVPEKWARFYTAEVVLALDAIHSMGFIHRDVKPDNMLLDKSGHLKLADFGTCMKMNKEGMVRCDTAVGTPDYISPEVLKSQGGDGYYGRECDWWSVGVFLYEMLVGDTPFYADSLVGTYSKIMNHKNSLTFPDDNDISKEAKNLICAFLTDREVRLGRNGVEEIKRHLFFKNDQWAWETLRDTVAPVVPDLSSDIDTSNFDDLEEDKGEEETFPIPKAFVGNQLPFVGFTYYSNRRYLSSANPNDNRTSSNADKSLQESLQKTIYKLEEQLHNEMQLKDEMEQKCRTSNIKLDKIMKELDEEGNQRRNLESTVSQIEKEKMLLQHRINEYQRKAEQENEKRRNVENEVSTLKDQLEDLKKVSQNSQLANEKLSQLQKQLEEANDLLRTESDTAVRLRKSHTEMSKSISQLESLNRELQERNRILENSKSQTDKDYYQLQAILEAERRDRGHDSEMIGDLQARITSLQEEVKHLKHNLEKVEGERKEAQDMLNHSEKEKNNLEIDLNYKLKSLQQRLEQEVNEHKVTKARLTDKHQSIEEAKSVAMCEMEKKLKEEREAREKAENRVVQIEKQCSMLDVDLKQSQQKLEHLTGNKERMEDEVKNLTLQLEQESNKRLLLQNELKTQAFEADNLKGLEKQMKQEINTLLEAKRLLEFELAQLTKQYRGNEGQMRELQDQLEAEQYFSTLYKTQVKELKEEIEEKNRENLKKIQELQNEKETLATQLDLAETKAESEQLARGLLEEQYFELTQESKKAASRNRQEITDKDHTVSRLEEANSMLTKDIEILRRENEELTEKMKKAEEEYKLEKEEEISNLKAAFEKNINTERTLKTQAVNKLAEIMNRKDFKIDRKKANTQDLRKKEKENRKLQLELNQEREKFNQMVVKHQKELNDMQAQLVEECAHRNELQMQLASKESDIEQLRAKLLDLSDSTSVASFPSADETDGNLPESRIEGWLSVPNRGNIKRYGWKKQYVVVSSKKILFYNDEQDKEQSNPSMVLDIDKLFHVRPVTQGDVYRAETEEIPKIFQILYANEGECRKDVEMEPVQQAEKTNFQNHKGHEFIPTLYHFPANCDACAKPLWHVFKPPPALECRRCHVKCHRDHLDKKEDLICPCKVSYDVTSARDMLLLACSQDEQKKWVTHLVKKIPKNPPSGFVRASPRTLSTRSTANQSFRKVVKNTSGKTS
Chain of Dual specificity tyrosine-phosphorylation-regulated kinase 3 (O43781 whole entry): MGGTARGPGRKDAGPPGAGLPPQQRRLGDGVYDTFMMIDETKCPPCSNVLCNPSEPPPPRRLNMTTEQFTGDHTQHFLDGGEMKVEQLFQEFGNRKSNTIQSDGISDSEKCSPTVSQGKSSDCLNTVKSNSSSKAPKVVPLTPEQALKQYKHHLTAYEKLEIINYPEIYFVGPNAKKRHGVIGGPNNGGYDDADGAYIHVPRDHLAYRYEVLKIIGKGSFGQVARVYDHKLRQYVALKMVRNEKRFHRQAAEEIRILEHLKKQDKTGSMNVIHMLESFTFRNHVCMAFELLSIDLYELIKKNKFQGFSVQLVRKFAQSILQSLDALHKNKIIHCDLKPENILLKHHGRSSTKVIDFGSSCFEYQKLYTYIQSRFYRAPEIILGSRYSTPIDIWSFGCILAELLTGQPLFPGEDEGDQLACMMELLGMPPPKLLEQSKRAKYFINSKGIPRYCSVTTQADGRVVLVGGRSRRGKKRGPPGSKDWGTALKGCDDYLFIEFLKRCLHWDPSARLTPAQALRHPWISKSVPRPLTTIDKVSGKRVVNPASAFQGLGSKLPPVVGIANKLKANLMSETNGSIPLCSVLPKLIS

SMILES: Cc1ccc(C(=O)NC2(O)C(=O)c3ccccc3C2=O)cc1C
- IC50 (SUMO-activating enzyme): 0.87 µM (active)

SMILES: O=[N+]([O-])c1c(Nc2ccccn2)cc(Cl)c2nonc12
- EC50 (BJ): 5.14 µM (inconclusive)
- CC50 (Vero): 16.8 µM (active)
- AC50 (Caspase-9): 17.4 µM (active)

SMILES: CC[C@@H](C)[C@H](CNC)NC[C@@H](Cc1cccc2ccccc12)NCCc1cccc(C(F)(F)F)c1
- IC50 [1]: > 20 µM (inactive)
- EC50 (Insulin-degrading enzyme): 6.41 µM (active)

- Ki [2]: > 5.01 µM (inactive)
- Ki [3]: > 10 µM (inactive)
- Ki (LIM domain kinase 1): 0.126 µM (active)
- Ki [4]: > 1.26 µM (inactive)
- Ki [5]: > 10 µM (inactive)
- Ki [6]: > 2 µM (inactive)
- Ki [7]: > 7.94 µM (inactive)
- Ki [8]: > 7.94 µM (inactive)
- Ki [9]: 1.26 µM (active)
- Ki [10]: > 7.94 µM (inactive)
- Ki [11]: > 6.31 µM (inactive)
- Ki (Misshapen-like kinase 1): 3.16 µM (active)
- Ki [12]: > 2 µM (inactive)
- Ki [13]: > 6.31 µM (inactive)
- Ki [14]: > 2 µM (inactive)
- Ki [15]: > 1.58 µM (inactive)
- Ki [16]: > 7.94 µM (inactive)
SMILES: CC(C)(CO)CNc1nccc(-c2c(-c3ccc(F)cc3)nc3c(CC4CC4)nccn23)n1
